Experimental data as given in patent US5621102A, “Process for preparing enantiomerically pure xanthine derivatives” (Cell Therapeutics, Inc., priority 1995, dated 1997).

Columns and labels:
smooth muscle cells = assay: smooth muscle proliferation stimulated by PDGF and IL-1; format: cell-based
Description: CT1501R and PTX were separately added to the cells two hours prior to activation with PDGF and IL-1.

thymocytes = assay: thymocyte costimulator assay (ConA and IL-1α or IL-2); format: cell-based, mice; conditions: drug added two hours prior to activation
Experimental: CT1501R was added to the cells at the doses indicated two hours prior to activation with ConA and IL-1α or IL-2. Background counts were less than 200 cpm.
A thymocyte costimulator assay is conducted to evaluate the inventive compounds to inhibit activation and proliferation of thymocytes caused by stimulation with Con A and interleukin-1 (IL-1), or […]. Thymuses are obtained from mice (e.g., female Balb/C mice) and the thymuses are removed and dissociated into culture media (e.g., RPMI 1640 without serum supplementation). The dissociated thymus tissue and cell suspension is transferred to centrifuge tubes and allowed to settle, washed with HBSS and resuspended in serum-supplemented culture media (e.g., RPMI 1640 with 10% fetal calf serum). Any contaminating red cells are lysed, and viable cells are resuspended and counted. Thymocytes are plated (e.g., 96-well plates at a density of 2×10^5 cells/well) and a stimulating agent, such as Con A, IL-1 (e.g., IL-1α) or IL-2 is added to the well. The cells are incubated for 4 days at 37 ° C. On the fourth day, the ceils are pulsed with tritiated thymidine and cell proliferation determined. Inventive compounds are added at the time of stimulating agent addition.

TNF-α = assay: mouse plasma TNF-α ELISA after endotoxin; format: in vivo, mice
Experimental: Each point represents the average of two experiments compiled from the average of duplicate ELISA measurements with each experimental point representing pooled plasma from three mice.
For ELISA measurements of cytokine levels in plasma, blood was collected by retro-orbital or cardiac puncture of anesthetized mice, immediately centrifuged and the EDTA plasma stored at -70° C. Particulate free plasma was thawed on ice and cytokine levels determined utilizing commercial ELISA assays with normal mouse plasma used to generate standard curves. Murine tumor necrosis factor-α and interleukin-1α kits were purchased from Genzyme (Cambridge, Mass.) and Endogen (Boston, Mass.), respectively. Each data point was an average of two ELISA measurements made from EDTA serum pooled from three mice. The data summarized in Table 3 were compiled from two independent experiments; data from Table 4 and 5 were from single experiments of three mice per data point.
Levels of TNF-α, IL-1α and IL-6 were measured in the plasma of mice as a function of time following treatment with S. abortus endotoxin. […] TNF-α levels peaked within 1 hour of treatment of endotoxin (Table 4 and FIG. 6). Treatment of the mice with CT1501R decreased the levels of TNF-α in the EDTA plasma of endotoxin treated mice at all time points measured. […]

[1] = system: hair follicles of nu/nu mice; assay: nude mouse hair studies, topical application; format: in vivo
Description: This example illustrates nude mouse hair studies involving topical application of CT1501R. Six to eight week old, female, nu/nu mice from Charles River Laboratories were housed at Biosupport Research Support Services (Seattle, Wash.) in autoclaved micro isolator units with hyperchlorinated autoclaved water, irradiated rodent chow and kept under a laminar flow hood. Caging was changed weekly, and water was changed twice weekly. The mice were acclimated for 5 days before beginning each study.
The first topical formulation was prepared by adding CT1501R to a heated hydrophilic ointment (USP) at a 1% concentration, and allowed to solidify.
Nude mice were painted twice daily for 16 days with the first topical formulation of CT1501R on the left flank and another compound in the same base on the right flank with sterile applicators. Mice were handled under the laminar flow hood with applicator wearing face mask and sterile gloves. After 16 days, one mouse was sacrificed by cervical dislocation and skin biopsies were taken of the treated areas of the shoulder/flank and from the non-treated area of the dorsal pelvis (rump). Specimens were placed in 10% buffered formalin solution. Biopsies were sent to a veterinary dermopathologist for histopathology. Six weeks following treatment, a second mouse was euthanatized and biopsied the same as the first. Samples were sent for histopathology.
In a second experiment, topical application of CT1501R was performed along with a commercial topical minoxidil preparation (Rogaine®, Upjohn) that is approved for a hair growth indication. Five to six week old, female, nu/nu mice from Bantin and Kingman Universal were housed at Biosupport Research Support Services (Seattle, Wash.) in autoclaved micro isolator units with hyper chlorinated autoclaved water, irradiated rodent chow and kept under a laminar flow hood. Caging was changed weekly, and water was changed twice weekly. Mice were acclimated for 7 days before beginning study, […]

C[C@@H](O)CCCCn1c(=O)c2c(ncn2C)n(C)c1=O [CT1501R, (R)-1-(5-hydroxyhexyl)-3,7-dimethylxanthine]
activity compared with PTX, smooth muscle cell proliferation (smooth muscle cells): more active than PTX | inhibition of smooth muscle cell proliferation (smooth muscle cells; drug added two hours prior to activation): inhibited smooth muscle cell proliferation at the higher doses tested | inhibition of thymocyte proliferation (thymocytes): inhibited thymocyte proliferation in a dose-response manner | decrease of peak plasma TNF-α vs endotoxin only (TNF-α; 0.5 hour post endotoxin): 2.5 fold | decrease of peak plasma TNF-α vs endotoxin only (TNF-α; 1 hour post endotoxin): 2.6 fold | hair follicles, histopathology of treated vs non treated skin sections ([1]; first experiment, 1% in hydrophilic ointment, twice daily for 16 days): significantly more normal appearing hair follicles than the non treated sections | hair follicles, subjective histopathological examination ([1]; second experiment, 60% ETOH, 10% water, 30% PEG base, twice daily, 34 days): greatest concentration of hair folicles
